From the supplement of paper PMC12370961

Assays:
Experiment in all cases: differential drug sensitivity score (dDSS) relative to sarcoma reference cohort mean DSS (DSS units (0-100 scale difference)); higher = more selective sensitivity than reference sarcomas
Details in all cases: exposure time: 72 h; concentration range: 10-10000 nM
[1] = test system: ES-ZH004 (patient-derived Ewing sarcoma tumoroid)
Method: (§1)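 Drug response profiling of patient-derived Ewing sarcoma and CIC::DUX4 sarcoma tumoroid models (or cells tested directly after isolation from the tumor, 'direct'). The DSS is the normalised AUC (0-100); dDSS is the sample DSS minus the mean DSS of a 34-sarcoma reference cohort profiled in the same lab.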

[2] = test system: ES-ZH016 direct (Ewing sarcoma cells right after isolation)
Method: as §1

[3] = test system: CDS-ZH003 (patient-derived CIC-DUX4 sarcoma tumoroid)
Method: as §1

[4] = test system: ES-ZH001 (patient-derived Ewing sarcoma tumoroid)
Method: as §1

[5] = test system: CDS-ZH002 (patient-derived CIC-DUX4 sarcoma tumoroid)
Method: as §1

[6] = test system: ES-ZH007 (patient-derived Ewing sarcoma tumoroid)
Method: as §1

[7] = test system: CDS-ZH002 direct (CIC-DUX4 sarcoma cells right after isolation)
Method: as §1

[8] = test system: CDS-ZH001-2 (patient-derived CIC-DUX4 sarcoma tumoroid)
Method: as §1

[9] = test system: CDS-ZH001 (patient-derived CIC-DUX4 sarcoma tumoroid)
Method: as §1

[10] = test system: ES-ZH002 (patient-derived Ewing sarcoma tumoroid)
Method: as §1

[11] = test system: ES-ZH009 (patient-derived Ewing sarcoma tumoroid)
Method: as §1

[12] = test system: ES-ZH016 (patient-derived Ewing sarcoma tumoroid)
Method: as §1

[13] = test system: ES-ZH008 (patient-derived Ewing sarcoma tumoroid)
Method: as §1

SMILES | differential drug sensitivity score [1] | differential drug sensitivity score [2] | differential drug sensitivity score [3] | differential drug sensitivity score [4] | differential drug sensitivity score [5] | differential drug sensitivity score [6] | differential drug sensitivity score [7] | differential drug sensitivity score [8] | differential drug sensitivity score [9] | differential drug sensitivity score [10] | differential drug sensitivity score [11] | differential drug sensitivity score [12] | differential drug sensitivity score [13]
O=NN(CCCl)C(=O)NCCCl [Carmustine] | 1.6 | 2.1 | -1.3 | 2.6 | -1.2 | -1.3 | -1.2 | -0.5 | -1.3 | 7.3 | -1.3 | 1.1 | 1.4
O=c1cc(N2CCOCC2)oc2c(-c3cccc4c3sc3ccccc34)cccc12 [NU7441] | -1.9 | 1.1 | -4.3 | 0 | -4 | -4.3 | 1.5 | 1.9 | -4.3 | 8.5 | 2.9 | -3.9 | -0.8
C[C@H]1CNC(=O)c2cnn3ccc(nc23)N[C@H](C)c2cc(F)ccc2O1 [Repotrectinib] | 2.9 | 7.7 | -1.4 | 0.2 | -0.4 | -1.3 | 0.2 | 6.2 | -0.3 | 5 | 1.8 | 2.1 | 10.8
O=C(O)C(=O)O.[NH-][C@@H]1CCCC[C@H]1[NH-].[Pt+2] [Oxaliplatin] | 0.2 | -5 | -4.8 | -0.1 | 5.9 | 1 | 7.7 | 5.9 | 2.2 | -2 | -5 | 1.2 | 2.9
CCCCN(Cc1ccc(C(=O)NO)cc1)C(=O)Nc1ccccc1 [Nexturastat A] | -0.7 | 4.4 | 2.1 | 2.9 | -0.4 | 2.1 | 2.4 | 5.3 | 0.8 | 0.9 | 0.5 | -1.3 | 5
C=C(F)C(=O)N1CCN(c2nc(OC[C@@H]3CCCN3C)nc3c2CCN(c2cccc4cccc(Cl)c24)C3)C[C@@H]1CC#N [MRTX849] | 0.1 | -1.7 | 3.5 | -0.9 | 1.5 | 2 | 0.7 | 0.7 | 4.8 | 1.1 | 1.8 | -1.7 | 1.6
Cc1c(-c2c(-c3ccc(F)o3)sc3ncnc(O[C@H](Cc4ccccc4OCc4ccnn4CC(F)(F)F)C(=O)O)c23)ccc(OCCN2CCN(C)CC2)c1Cl | 12.2 | 14.5 | 31.7 | -11.5 | 10.4 | 28.5 | 19.6 | 29.6 | 32.7 | 9.2 | 11.6 | 7 | 8.1
COc1cc(C(=O)O)ccc1NC(=O)[C@@H]1N[C@@H](CC(C)(C)C)[C@](C#N)(c2ccc(Cl)cc2F)[C@H]1c1cccc(Cl)c1F [Idasanutlin] | -13.6 | 15.1 | 12 | -13.6 | 1.9 | -13.6 | 10 | 8.5 | 4 | 23 | -13.6 | 6.4 | 19.1
C[C@@H]1COCCN1c1cc(C2([S@](C)(=N)=O)CC2)nc(-c2cc[nH]c3nccc2-3)n1 [Ceralasertib] | 5.7 | 13.8 | -4.4 | 5.9 | -0.4 | 3 | -2.5 | 0.7 | 0 | 12 | 2.1 | 4.5 | 9.7
CN(C)C(=O)c1cc2cnc(Nc3ccc(N4CCNCC4)cn3)nc2n1C1CCCC1 [Ribociclib] | 4.2 | -3 | -0.8 | 2.6 | -2.3 | 4.1 | -2 | -2.1 | -2.1 | 8 | 1.9 | 0.4 | 3.5
CCNC(=O)C[C@@H]1N=C(c2ccc(Cl)cc2)c2cc(OC)ccc2-n2c(C)nnc21 [Molibresib] | -0.4 | 4.2 | -5.3 | 0.4 | -5.5 | -1.8 | -3.9 | -1 | -1.2 | 5.5 | 5.5 | 0.4 | 6.8
CCc1c(O)cc(O)c(C(=O)c2ccc(OCCN3CCOCC3)c(OC)c2)c1CC(=O)N(CCOC)CCOC [KW-2478] | 0 | 3.2 | -1.3 | 3.5 | -3.8 | 0.6 | -0.4 | 0.4 | -0.4 | 7.3 | 4.4 | 1.4 | 6.1
COc1cc2nccc(Oc3ccc(NC(=O)C4(C(=O)Nc5ccc(F)cc5)CC4)cc3)c2cc1OC [Cabozantinib] | 5.9 | -2.6 | -1.5 | 3.6 | -2.6 | -1 | -2 | -2.6 | -2.6 | 3.4 | -1.5 | -2.4 | 1.7
Clc1ccc(NN=C(c2ccccc2)c2ccccn2)nc1 [JIB04] | -4.3 | -0.6 | -2.7 | -6.1 | 1.4 | 0.7 | -4.8 | 0.6 | -4.4 | -6 | -2.6 | 1.5 | -2.5
CCCC(CCC)C(=O)O [Valproic acid] | 8.2 | 6.5 | -1.3 | 2.8 | -2.5 | 0.9 | -1.9 | -0.9 | -2.5 | 4.4 | 1.7 | -2.5 | 1.7
O=C(/C=C\n1cnc(-c2cc(C(F)(F)F)cc(C(F)(F)F)c2)n1)NNc1cnccn1 [Selinexor] | 13.5 | 2.2 | -0.6 | -0.6 | -5.5 | 3.2 | -3.6 | 1.3 | -1.3 | 6.2 | -11.6 | -2.7 | 16.7
CC[C@]1(O)C[C@H]2CN(CCc3c([nH]c4ccccc34)[C@@](C(=O)OC)(c3cc4c(cc3OC)N(C=O)[C@H]3[C@@](O)(C(=O)OC)[C@H](OC(C)=O)[C@]5(CC)C=CCN6CC[C@]43[C@@H]65)C2)C1 [Vincristine] | 13.2 | 10 | -10.2 | 24.2 | 10.8 | 16.1 | 13.4 | -4.8 | 9.3 | 24 | 26 | 18.3 | 16.9
CCN(CCCOc1ccc2c(Nc3cc(CC(=O)Nc4cccc(F)c4)[nH]n3)ncnc2c1)CCOP(=O)(O)O [Barasertib] | 10.1 | 23.8 | -8.9 | 32.8 | -3 | 4.7 | -3 | 4.6 | -8.9 | 26.1 | 27.6 | 22.6 | 17.5
CNC(=O)Nc1ccc2c(c1)CC[C@@]21OC(=O)N(CC(=O)N(Cc2ccc(F)cc2)[C@@H](C)C(F)(F)F)C1=O [A-485] | -3.4 | -5.4 | 22.3 | 4.6 | 6.8 | 2.9 | 6.8 | -2.1 | 8.4 | 5.2 | 2.6 | -4 | 1.4
COc1ccc(C2=N[C@@H](c3ccc(Cl)cc3)[C@@H](c3ccc(Cl)cc3)N2C(=O)N2CCNC(=O)C2)c(OC(C)C)c1 [Nutlin-3] | -4.6 | 14 | 3.6 | -4.6 | -1.3 | -4.6 | 1 | 8.4 | -1.8 | 8 | -4.4 | 3.3 | 1.4
Cc1ccc(F)c(NC(=O)Nc2ccc(-c3cccc4[nH]nc(N)c34)cc2)c1 [Linifanib] | -1.3 | 0.7 | 0.8 | 3.8 | -1.4 | -1.4 | 1.4 | -0.9 | 0.8 | 2.4 | 2.3 | 0.1 | -0.4
CS(=O)(=O)c1ccc(C(=O)Nc2ccc(Cl)c(-c3ccccn3)c2)c(Cl)c1 [Vismodegib] | 5.2 | -2.7 | -6.9 | 4.7 | -2.4 | 0.4 | 1.1 | -2.6 | -2.7 | 7.1 | -2.6 | 1.4 | 2.8
CN1CCC(COc2cnc(-c3cccc(Cn4nc(-c5cccc(C#N)c5)ccc4=O)c3)nc2)CC1 [Tepotinib] | -4.7 | -4.5 | 3.5 | 4.4 | -5.4 | -0.6 | 2.3 | -2.5 | -1.4 | 0.6 | 9 | -4.3 | -4.7
NC(=O)Nc1cc(-c2cccc(F)c2)sc1C(=O)N[C@H]1CCCNC1 [AZD7762] | -2.9 | 10.6 | -3.8 | 7.4 | -0.5 | 8.8 | -1 | 0 | 6.3 | 7.1 | 8.8 | 4.7 | 8.1
Nc1nc2[nH]cnc2c(=S)[nH]1 [Thioguanine] | 12.4 | 3.7 | -4.2 | 15.5 | 0.2 | 1.2 | 2.5 | 5.1 | 1 | 17.1 | 9.6 | -4.8 | 10.4
CC#CC(=O)N1CCC[C@H]1c1nc(-c2ccc(C(=O)Nc3ccccn3)cc2)c2c(N)nccn12 [Acalabrutinib] | 11.2 | 2.4 | 1.4 | 5.7 | -2.9 | -3.5 | -3.2 | -2.5 | -3.5 | 9.7 | -3.5 | -2.1 | 17.5
CO[C@@]12[C@H](COC(N)=O)C3=C(C(=O)C(C)=C(N)C3=O)N1C[C@@H]1N[C@@H]12 [Mitomycin] | 10.3 | 15.5 | 0.6 | 14.4 | -4.7 | 9.5 | -3.8 | 1.6 | -1.3 | 22.4 | 6.6 | 17.3 | 18.4
N[C@@H]1CCCN(c2c(/C=C3\SC(=O)NC3=O)cccc2-c2ccccc2)C1 [AZD1208] | -0.8 | -2.9 | 13.6 | -0.4 | 1.2 | -2.9 | 1.1 | 2 | 8.2 | 0 | 3.6 | -2.9 | 1.8
Cn1nccc1Nc1nccc(-c2ccn([C@H](CO)c3ccc(Cl)c(F)c3)c(=O)c2)n1 [Ravoxertinib] | -5 | -5 | -5 | -5 | -5 | -0.3 | -2.3 | -3.7 | -5 | -0.4 | 1.2 | -2 | -5
